Where a name gives a salt, the structure may show the parent alone. Read-outs that look alike come from different tables or passages of the source.
Assays:
[1] = tested on: PHH (various donors); set-up: method as in PMID 27338863; details: Suspension, day 0 of culture, incubation 0.17 h; cited from earlier work
[2] = tested on: PHH (TF-HU8373); assay: Midazolam metabolism (1′-OH MDZ formation) in 96-well plate, PHH; format: in vitro ADME, human; details: day 2, incubation 24 h
Procedure: For the PHH 2D model, 96-well plates were first coated with 200 μg/mL collagen I (CB354249, Corning Inc.) and 50 μg/mL fibronectin (F1141, Sigma-Aldrich, St. Louis, MO, USA) and incubated at 37 °C, 5% CO2 for 1 h. Thawed PHHs were collected by centrifugation (100× g, 10 min), resuspended in plating media, and seeded at a density of 50,000–60,000 cells/well. After incubation overnight, the media were changed to maintenance media. The total well volume was 100 μL, and plates were incubated at 37 °C, 5% CO2, with media refreshed every 1–2 days.
After drug addition, media were collected every 2, 6, and 24 h. After 24 h, the drug treatment media were replaced with fresh maintenance media. For the experiment with pesticide mixtures, we selected chemicals from the Agency for Toxic Substances and Disease Registry Substance Priority List, which contains compounds that are commonly detected at Superfund sites and are known to be hazardous to human health. A molar-equivalent mixture was created by combining all 20 pesticides and diluting them to a final concentration of 1 or 5 μM each in dimethyl sulfoxide (DMSO, final concentration 0.5% v/v). Media was collected 48 h after treatment for the analyses detailed below. […]

[3] = tested on: PHH (various donors); set-up: method as in PMID 25068923; details: LiverChip, day 4 of culture, estimated from figures, cited from earlier work
[4] = tested on: PHH (TF-HU8373); assay: Midazolam metabolism (1′-OH MDZ formation) in PhysioMimix LC-12, PHH monoculture; details: 5 µM MDZ; for 1′-OH MDZ Formed, Mean ± S.D. / 1′-OH MDZ Formed, Median: PhysioMimix LC-12, PHH
[5] = tested on: PHH (TF-HU8373) + THP-1; assay: Midazolam metabolism (1′-OH MDZ formation) in 96-well plate, PHH + THP-1; format: in vitro ADME, human; details: PHH + THP-1, day 2, incubation 24 h
[6] = tested on: PHH (TF-HU8373) + THP-1; assay: Midazolam metabolism (1′-OH MDZ formation) in PhysioMimix LC-12, PHH + THP-1 co-culture; format: in vitro ADME, human; details: 5 µM MDZ
Procedure: Metabolic capacity was assessed across the various cell type conditions, including both types of hepatocytes. Midazolam (MDZ) was tested as a representative substrate for CYP3A4 [43]. Cells were treated with MDZ for up to 24 h on different days of culture, with sampling at 2, 6, and 24 h after treatment. The collected media was processed using high-performance liquid chromatography tandem mass spectrometry (HPLC-MS/MS) to determine the concentration of both the remaining parent compound (MDZ) and metabolites formed (1′-OH MDZ and 1′-OH MDZ glucuronide). We also tested the metabolism of equimolar mixtures (1 or 5 µM) of 20 pesticides that were previously used to evaluate the metabolic competence of different in vitro liver models. Cells were treated on day 6 of culture, and media were collected for analysis 48 h thereafter. Samples were analyzed using either gas chromatography (GC)-MS/MS or HPLC-MS/MS to determine whether parent molecule concentrations diminished, consistent with the metabolic activity of the cells.
The day when PHHs were seeded into PhysioMimix LC12 plates was defined as day 0 (Figure 1). PHHs were cultured in the PhysioMimix LC12 following the manufacturer’s protocols. PHHs were thawed into CHRM (CM7000, Thermo Fisher), centrifuged at 100× g for 10 min, resuspended in plating media, and then seeded into the PhysioMimix LC12 scaffold at a seeding density of 475,000–600,000 cells/chip. The flow was initiated at 1 µL/s.
For co-culture conditions, THP-1 monocytes and HMEC-1 endothelial cells were seeded either on day 0 or 1 at a seeding density of 60,000–160,000 cells/chip or 60,000 cells/chip, respectively. Primary KCs, HSCs, and LSECs were seeded either on day 0 or 1 at a seeding density of 100,000 cells/chip, 35,000 cells/chip, and 70,000–140,000 cells/chip, respectively. Cell seeding ratios were determined based on previous experiments or reports of the physiological cell ratios in the human liver. Media were collected and exchanged every 1–3 days by aspirating and replacing media from the media reservoir (1.8 mL/chip).
(§1) For evaluation of MDZ metabolism, cells were exposed on days 4–16 of culture to 5 µM MDZ (dissolved in methanol for the final concentration of 0.16% v/v). After drug addition, media were collected every 2, 6, and 24 h. After 24 h, the drug treatment media were replaced with fresh maintenance media. For the experiment with pesticide mixtures, we selected chemicals from the Agency for Toxic Substances and Disease Registry Substance Priority List, which contains compounds that are commonly detected at Superfund sites and are known to be hazardous to human health. A molar-equivalent mixture was created by combining all 20 pesticides and diluting them to a final concentration of 1 or 5 μM each in dimethyl sulfoxide (DMSO, final concentration 0.5% v/v). Media was collected 48 h after treatment for the analyses detailed below. For evaluation of immune-mediated toxicity with Trovafloxacin and LPS treatment, PHHs + THP-1 monocytes or PHHs + KCs were exposed on day 6 of culture to 25 or 100 µM of Trovafloxacin, with or without LPS. After 48 h, the drug treatment media were collected for biochemical assays detailed below.
After treatment with MDZ or pesticide mixtures (Supplemental Table S3), 50 µL media samples were mixed with 100 µL of 0.1 or 1 µM internal standard (Caffeine-13C3, C-082, Millipore Sigma; Supplemental Table S3) solution in acetonitrile on ice, respectively. Samples were vortexed and centrifuged (12,000× g, 10 min, room temperature) to allow for protein precipitation. The supernatant was collected from each sample, dried under vacuum, and reconstituted in 50 µL aqueous mobile phase. The reconstituted samples were transferred to glass autosampler vials with 200 µL inserts and stored at −20 °C prior to HPLC-MS/MS analysis. […]

[7] = tested on: PHHs (donor HU8373) + Kupffer cells; assay: Immune-mediated toxicity, trovafloxacin ± LPS in PhysioMimix LC12, PHH + Kupffer cells; format: cell-based; details: 48 h
Procedure: as §1
(§2) Cell culture media was collected every time media was exchanged (Figure 1) and stored frozen at −80 °C until analyses for various biomarkers, including albumin, urea, lactate dehydrogenase (LDH), and human interleukin-6 (IL-6). The ELISA assays for albumin (E88-129, Bethyl Laboratories, Montgomery, TX, USA), urea (EIABUN, ThermoFisher), LDH (ab102526, Abcam, Cambridge, UK), and IL-6 (D6050, R&D Systems) were conducted using manufacturer’s instructions. For CYP3A4 activity, the P450 Glo 3A4 with Luciferin-IPA assay (V9001, Promega, Madison, WI, USA) was used; this is a live cell assay, and it was conducted according to the manufacturer’s instructions as follows. The Luciferin-IPA substrate was diluted 1:1000 in maintenance media and added to chips or wells 1 h prior to reading luminescence using a plate reader (SpectraMax iD3, Molecular Devices, San Jose, CA, USA). After the assay, the media was replaced.
(§3) The last series of experiments was conducted to examine whether a co-culture of PHHs and NPCs in the PhysioMimix LC12 could model immune-mediated effects. […] We examined two conditions of use: HU8373 PHH with either THP-1 cells or Kupffer cells (Figure 8). Treatments (25 or 100 μM trovafloxacin) were added on […] with or without LPS (1 μg/mL) (Figure 1H) to replicate a well-established model of immune-mediated hepatotoxicity. We examined LDH leakage as a marker of cytotoxicity, CYP3A4 activity, and IL-6 secretion into the media as a marker of pro-inflammatory response. […] Few effects on CYP3A4 were observed, albeit inter-experimental variability was high (Figure 8B).
Figure 8 Immune-mediated toxicity in the PhysioMimix LC12. […]

[8] = tested on: PHHs (donor HU8373) + THP-1 cells; assay: Immune-mediated toxicity, trovafloxacin ± LPS in PhysioMimix LC12, PHH + THP-1; format: cell-based; details: 48 h
Procedure: as §1, §2, §3
Figure 8 Immune-mediated toxicity in the PhysioMimix LC12. Changes in LDH, CYP3A4, and IL-6 after 48 h trovafloxacin exposure with and without LPS in the PhysioMimix LC12 seeded with PHHs (donor HU8373) and non-parenchymal cells (THP-1 cells or Kupffer cells). (A) LDH leakage, (B) CYP3A4 activity, and (C) IL-6 release. Endpoints were normalized to the mean of the pretreatment samples (day 6 of the experiment). Data are plotted as box (interquartile range) and whiskers (min-max) with all individual values shown (n = 2–12). […] Brackets indicate statistical significance between groups at p < 0.05 by two-way ANOVA with Tukey’s multiple comparisons test.

[9] = PhysioMimix LC-12, PHH + THP-1, day 6, incubation 2 h
[10] = PhysioMimix LC-12, PHH + THP-1, day 6, incubation 24 h
[11] = PhysioMimix LC-12, PHH + THP-1, day 12, incubation 24 h
[12] = 25 and 100 μM trovafloxacin + LPS (1 μg/mL)
[13] = 25 or 100 μM trovafloxacin with or without LPS (1 μg/mL)

OCc1ncc2n1-c1ccc(Cl)cc1C(c1ccccc1F)=NC2 [1′-OH-midazolam, 1-hydroxymidazolam]
1′-OH MDZ Formed, Mean ± S.D. [1]: 100 ± 106 pmol/min/1 M Hep.
1′-OH MDZ Formed, Median [1]: 63.7 pmol/min/1 M Hep.
1′-OH MDZ Formed, Mean ± S.D. [2]: 0.163 ± 0.064 pmol/min/1 M Hep.
1′-OH MDZ Formed, Median [2]: 0.189 pmol/min/1 M Hep.
1′-OH MDZ Formed, Mean ± S.D. ([3]; incubation 2 h): 4.55 ± 2.27 pmol/min/1 M Hep.
1′-OH MDZ Formed, Mean ± S.D. ([3]; incubation 24 h): 0.216 ± 0.054 pmol/min/1 M Hep.
1′-OH MDZ Formed, Mean ± S.D. ([4]; day 6, incubation 2 h): 2.72 ± 1.75 pmol/min/1 M Hep.
1′-OH MDZ Formed, Median ([4]; day 6, incubation 2 h): 2.33 pmol/min/1 M Hep.
1′-OH MDZ Formed, Mean ± S.D. ([4]; day 6, incubation 24 h): 0.610 ± 0.403 pmol/min/1 M Hep.
1′-OH MDZ Formed, Median ([4]; day 6, incubation 24 h): 0.561 pmol/min/1 M Hep.
1′-OH MDZ Formed, Mean ± S.D. ([4]; day 12, incubation 24 h): 0.753 ± 0.612 pmol/min/1 M Hep.
1′-OH MDZ Formed, Median ([4]; day 12, incubation 24 h): 0.649 pmol/min/1 M Hep.
1′-OH MDZ Formed, Mean ± S.D. [5]: 0.088 ± 0.077 pmol/min/1 M Hep.
1′-OH MDZ Formed, Median [5]: 0.061 pmol/min/1 M Hep.
1′-OH MDZ Formed, Mean ± S.D. [6, 9]: 2.54 ± 1.64 pmol/min/1 M Hep.
1′-OH MDZ Formed, Median [6, 9]: 2.11 pmol/min/1 M Hep.
1′-OH MDZ Formed, Mean ± S.D. [6, 10]: 0.836 ± 0.556 pmol/min/1 M Hep.
1′-OH MDZ Formed, Median [6, 10]: 0.997 pmol/min/1 M Hep.
1′-OH MDZ Formed, Mean ± S.D. [6, 11]: 0.971 ± 0.910 pmol/min/1 M Hep.
1′-OH MDZ Formed, Median [6, 11]: 0.933 pmol/min/1 M Hep.

Cc1ncc2n1-c1ccc(Cl)cc1C(c1ccccc1F)=NC2 [midazolam, Midazolam]
Midazolam metabolism over time in culture ([4]; PhysioMimix LC12, HU8373 PHH, different cell combinations, 24 h): remained consistent over time

N[C@@H]1[C@H]2CN(c3nc4c(cc3F)c(=O)c(C(=O)O)cn4-c3ccc(F)cc3F)C[C@@H]12 [trovafloxacin, Trovafloxacin mesylate]
IL-6 secretion into the media ([7]; 100 μM trovafloxacin): Increases
Potentiating effect of LPS on trovafloxacin (IL-6 release) [7, 12]: significant potentiating effect
Effect on CYP3A4 activity [7, 13]: Few effects
IL-6 secretion into the media ([8]; 100 μM trovafloxacin): Increases
Potentiating effect of LPS on trovafloxacin (IL-6 release) [8, 12]: not THP-1 cells
Effect on CYP3A4 activity [8, 13]: Few effects
LDH leakage as compared to pre-treatment levels [8, 13]: Significant increases

Lipopolysaccharide [LPS]
IL-6 secretion into the media ([7]; LPS alone (1 μg/mL)): Increases
IL-6 secretion into the media ([8]; LPS alone (1 μg/mL)): Increases

Reference: PMC10603899, “Reproducibility and Robustness of a Liver Microphysiological System PhysioMimix LC12 under Varying Culture Conditions and Cell Type Combinations” (Bioengineering, 2023)
